The text below walks through data of patent publication US12180226B2, “Spirotricycle RIPK1 inhibitors and methods of uses thereof” (Merck Sharp & Dohme LLC, priority 2021, dated 2024).

The target of the experiment is RIPK1 (recombinant GST-RIPK1 kinase domain, residues 1-327) (Homo sapiens (Human), UniProt Q13546). Kind of experiment: RIPK1-ADP-Glo Enzymatic Assay. It is filed as biochemical. As to conditions: ADP-Glo; 25 nM GST-RIPK1, 300 μM ATP; assay lower limit ~25 nM; read-out: RIPK1 V0 Ec50. The procedure, abridged: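 Luminescent ADP-Glo readout of ATP-to-ADP conversion. Conditions: 25 nM enzyme, 300 μM ATP, 3 μM dephospho-MBP, pH 7.3 HEPES buffer with 20 mM MgCl2; 30 min compound pre-incubation, 150 min reaction. EC50 via four-parameter sigmoidal regression; assay floor ~25 nM.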
RIPK1 (recombinant GST-RIPK1 kinase domain, residues 1-327), sequence (Q13546 1-327): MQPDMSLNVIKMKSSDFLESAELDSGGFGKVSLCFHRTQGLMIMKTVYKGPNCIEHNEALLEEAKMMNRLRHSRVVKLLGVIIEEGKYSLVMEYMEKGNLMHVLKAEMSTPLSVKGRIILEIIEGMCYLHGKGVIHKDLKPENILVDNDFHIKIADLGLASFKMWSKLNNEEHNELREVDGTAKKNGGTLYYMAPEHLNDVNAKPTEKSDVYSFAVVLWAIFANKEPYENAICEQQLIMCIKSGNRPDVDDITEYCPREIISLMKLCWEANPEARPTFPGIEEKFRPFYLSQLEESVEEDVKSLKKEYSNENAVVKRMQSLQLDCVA
On the technique in general: In ADP-Glo the light output rises with the ADP produced.

Each structure is given as a SMILES string. pEC50: −log10 of the molar value. Counter-ions that a name gives are not always drawn. Bounds are passed on as bounds.

One may read the pEC50 as the negative decadic logarithm of the EC50, by convention in mol/L. As for `O=C(c1ccccc1)N1CCC2(CC1)O[C@@H]1CC[C@@H](c3cc(F)cc(F)c3)N1C2=O` [Example 1.1, (5′S,7a′R)-1-Benzoyl-5′-(3,5-difluorophenyl)tetrahydro-3′H-spiro[piperidine-4,2′-pyrrolo[2,1-b]oxazol]-3′-one], the negative logarithm of the EC50 (pEC50) was greater than 7.60.

With `O=C(c1ccccc1)N1CCC2(O[C@@H]3CC[C@@H](c4ccccc4)N3C2=O)C(F)C1` (single isomer, unassigned) [Example 2.2, (3[R or S],4[S or R], 5′S,7a′R)-1-benzoyl-3-fluoro-5′-phenyltetrahydro-3′H-spiro[piperidine-4,2′-pyrrolo[2,1-b]oxazol]-3′-one], the pEC50 is greater than 7.60.

As for `O=C(c1ccccc1)N1CCC2(CC1)O[C@@H]1CC[C@@H](c3ccc(F)cn3)N1C2=O` [Example 17.6, (5′S,7a′R)-1-benzoyl-5′-(5-fluoropyridin-2-yl)tetrahydro-3′H-spiro[piperidine-4,2′-pyrrolo[2,1-b]oxazol]-40′-one, TFA salt], the pEC50 was 7.03.

With `COc1cc(N2CCC3(CC2)O[C@@H]2CC[C@@H](c4cc(F)cc(F)c4)N2C3=O)ncc1C#N` [Example 4.43, 6-[(5′S,7a′R)-5′-(3,5-difluorophenyl)-3′-oxotetrahydro-1H,3′H-spiro[piperidine-4,2′-pyrrolo[2,1-b] [1,3]oxazol]-1-yl]-4-methoxypyridine-3-carbonitrile], the pEC50 was greater than 7.60.

On to `O=C1N2[C@@H](CC[C@H]2c2cc(F)cc(F)c2)OC12CCN(c1ncc(F)c(C3CC3)n1)CC2` [Example 4.65, (5′S,7a′R)-1-(4-cyclopropyl-5-fluoropyrimidin-2-yl)-5′-(3,5-difluorophenyl)tetrahydro-3′H-spiro[piperidine-4,2′-pyrrolo[2,1-b] [1,3]oxazol]-3′-one], for which the negative-log EC50 (pEC50) is 6.79.

As for `N#Cc1cc(N2CCC3(CC2)O[C@@H]2CC[C@@H](c4ccccc4)N2C3=O)ccn1` [Example 4.31, 4-[(5′S,7a′R)-3′-oxo-5′-phenyltetrahydro-1H,3′H-spiro[piperidine-4,2′-pyrrolo[2,1-b] [1,3]oxazol]-1-yl]pyridine-2-carbonitrile], the pEC50 is greater than 7.60.

On to `O=C(c1cc(F)c(F)cc1F)N1CCC2(CC1)O[C@@H]1CC[C@@H](c3ccccc3)N1C2=O` [Example 5.10, (5′S,7a′R)-5′-phenyl-1-(2,4,5-trifluorobenzene-1-carbonyl)tetrahydro-3′H-spiro[piperidine-4,2′-pyrrolo[2,1-b][1,3]oxazol]-3′-one], for which the pEC50 was greater than 7.60.

Regarding `CC(F)c1cc(N2CCC3(CC2)O[C@@H]2CC[C@@H](c4ccccc4)N2C3=O)ncn1` (stereo partly drawn) [Example 4.214, (5′S,7a′R)-1-[6-(1-fluoroethyl)pyrimidin-4-yl]-5′-phenyltetrahydro-3′H-spiro[piperidine-4,2′-pyrrolo[2,1-b] [1,3]oxazol]-3′-one], the pEC50 was 6.89.

Regarding `Cc1ccc(C(=O)N2CCC3(CC2)O[C@@H]2CC[C@@H](c4cc(F)cc(F)c4)N2C3=O)s1` [Example 5.34, (5′S,7a′R)-5′-(3,5-difluoro-phenyl)-1-(5-methylthio-phene-2-carbonyl)tetra-hydro-3′H-spiro[piperidine-4,2′-pyrrolo[2,1-b]oxazol]-3′-one], the pEC50 is greater than 7.60.

Regarding `O=C(c1ccsc1-c1ncccn1)N1CCC2(CC1)O[C@@H]1CC[C@@H](c3cc(F)cc(F)c3)N1C2=O` [Example 6.36, (5′S,7a′R)-5′-(3,5-difluorophenyl)-1-[2-(pyrimidin-2-yl)thio-phene-3-carbonyl] tetrahydro-3′H-spiro [piperidine-4,2′-pyrrolo[2,1-b][1,3]oxazol]-3′-one], the pEC50 is 6.07.

With `O=C(c1cccc(F)c1)N1CCC2(CC1)O[C@@H]1CC[C@@H](c3ccccc3)N1C2=O` [Example 6.154, (5′S,7a′R)-1-(3-fluoro-benzene-1-carbonyl)-5′-phenyltetrahydro-3′H-spiro[piperidine-4,2′-pyrrolo[2,1-b] [1,3]oxazol]-3′-one], the pEC50 was greater than 7.60.
